Data: patent publication US20240417410A1, “TRICYCLIC COMPOUNDS FOR THE TREATMENT OF CANCER” (Hoffmann-La Roche Inc., priority 2023, published 2024)

Columns and labels:
[1] = tested on: AGS cells (KRAS G12D); assay: Cell viability assay (Cell Counting Kit-8, 3-day); assay type: cell-based, human; details: Homo sapiens, 72 h, 72 hrs incubation
Description: (§1) The purpose of this cellular assay was to determine the effects of test compounds on the proliferation of human cancer cell lines NCI-H358 (ATCC-CRL5807) cells, AGS (ATCC-CRL-1739) cells, SW620 (ATCC-CCL-227) over a 3-day treatment period by quantifying the amount of NADPH present at endpoint using Cell Counting Kit-8.
(§2) Cells were seeded at 5,000 cells/well (NCI-H358), 2,000 cells/well (AGS) 2,000 cells/well (SW620) in 96-well assay plates (Corning-3699) and incubated overnight. On the day of the assay, diluted compounds were then added in a final concentration of 0.5% DMSO. After 72 hrs incubation, a tenth of the volume of cell counting kit 8 (Dnjindo-CK04) was added into each well. Read the signal (OD450 minus OD650) using EnVision after 2 hrs incubation. IC50 was determined by fitting a 4-parameter sigmoidal concentration response model.

[2] = tested on: NCI-H358 cells (KRAS G12C); assay: Cell viability assay (Cell Counting Kit-8, 3-day); assay type: cell-based, human; details: Homo sapiens, NCI-H358, 72 h, NCI-H358, 72 hrs incubation
Description: as §1, §2

[3] = tested on: SW620 cells (KRAS G12V); assay: Cell viability assay (Cell Counting Kit-8, 3-day); assay type: cell-based, human; details: Homo sapiens, SW-620; SW620, 72 hrs incubation
Description: as §1, §2

[4] = tested on: phosphorylation of ERK, KRAS G12C in NCI-H358 cells; assay: pERK inhibition assay; assay type: cell-based; details: Homo sapiens, NCI-H358, 4 h
Description: (§3) This assay is to measure the ability of test compounds in inhibiting the phosphorylation of ERK, the downstream signaling of KRAS G12C in NCI-H358 cells, KRAS G12D in AGS cells, and KRAS G12V in SW620. NCI-H358 (ATCC-CRL5807) cells, AGS (ATCC-CRL-1739) cells, SW620 (ATCC-CCL-227) cells were all grown and maintained using RPMI-1640 medium (Thermo Fisher Scientific) with 10% fetal bovine serum and 1% penicillin/streptomycin. On the day prior to compound addition, cells were plated in tissue culture-treated 96 well plates (Corning-3699) at a density of 30,000 cell/well, 20,000 cell/well, 30,000 cell/well for NCI-H358, AGS and SW620 respectively, and allowed for attachment overnight. Diluted compounds were then added in a final concentration of 0.5% DMSO. After 4 hours of incubation, the medium was removed, 100 μL of 4% formaldehyde was added, and the assay plates were incubated at room temperature for 20 minutes. The plates were then washed once with phosphate buffered saline (PBS), and permeabilized with 100 μL of chilled methanol for 10 minutes. Non-specific antibody binding to the plates was blocked using 50 μL 1X BSA blocking buffer (Thermo-37520, 10-fold dilution by Phosphate-Buffered Saline Tween (PBST) for at least 1 hour at room temperature.
(§4) The amount of phosphor-ERK was determined using an antibody specific for phosphorylated form of ERK. Primary antibody (PERK, CST-4370, Cell Signaling Technology) was diluted 1:300 in blocking buffer, with 50 μL aliquoted to each well, and incubated overnight at 4° C. Cells was washed five times for 5 minutes with PBST. Secondary antibody (HRP-linked anti-rabbit IgG, CST-7074, Cell Signaling Technology) was diluted 1:1000 in blocking buffer, and 50 μL was added to each well and incubated 1-2 hrs at room temperature. Cells was washed […] for 5 minutes with PBST, 100 μL TMB ELISA substrate (abcam-ab171523) were added and gently shake for 20 minutes. 50 μL stop solution (abcam-ab 171529) were added, and then read the signal (OD450) by EnVision.
(§5) IC50 was determined by fitting a 4-parameter sigmoidal concentration response model.

[5] = tested on: phosphorylation of ERK, KRAS G12D in AGS cells; assay: pERK inhibition assay; assay type: cell-based; details: Homo sapiens, AGS, 4 h
Description: as §3, §4, §5

[6] = tested on: phosphorylation of ERK, KRAS G12V in SW620; assay: pERK inhibition assay; assay type: cell-based; details: Homo sapiens, SW-620, 4 h, SW620 cells
Description: as §3, §4, §5

SMILES	IC50 [1] [nM]	IC50 [2] [nM]	IC50 [3] [nM]	IC50 [4] [nM]	IC50 [5] [nM]	IC50 [6] [nM]
CO[C@@H](C)c1ncc(N2CCN(CC(F)(F)F)CC2)cc1-c1c2c3cc(cc4c3n1CCO4)-c1csc(n1)C[C@H](NC(=O)[C@H]1C[C@@H]1c1ccccc1)C(=O)N1CCC[C@H](N1)C(=O)OCC(C)(C)C2 (atropisomer, axis not shown; (M)) [Example 44, (1S,2S)-N-[(7S,13S)-(20M)-20-[2-[(1S)-1-methoxyethyl]-5-[4-(2,2,2-trifluoroethyl)piperazin-1-yl]-3-pyridyl]-17,17-dimethyl-8,14-dioxo-15,24-dioxa-4-thia-9,21,30,31-tetrazahexacyclo[23.3.1.1^2,5.1^9,13.0^19,27.0^21,26]hentriaconta-1 (29),2,5 (31),19,25,27-hexaen-7-yl]-2-phenyl-cyclopropanecarboxamide]	33.9	16.8	3.1	2.1	9.1	1.4
CO[C@@H](C)c1ncc(N2CCOCC2)cc1-c1c2c3cc(cc4c3n1CCC4)-c1csc(n1)C[C@H](NC(=O)[C@H]1C[C@@H]1c1ccccc1)C(=O)N1CCC[C@H](N1)C(=O)OCC(C)(C)C2 (atropisomer, axis not shown; (M)) [Example 46, (1S,2S)-N-[(7S,13S)-(20M)-20-[2-[(1S)-1-methoxyethyl]-5-morpholino-3-pyridyl]-17,17-dimethyl-8,14-dioxo-15-oxa-4-thia-9,21,30,31-tetrazahexacyclo[23.3.1.1^2,5.1^9,13.0^19,27.0^21,26]hentriaconta-1 (29),2,5 (31), 19,25,27-hexaen-7-yl]-2-phenyl-cyclopropanecarboxamide]	32.2	8.1	2.4	0.9	9.1	1
CO[C@@H](C)c1ncc(N2CCN(C)CC2)cc1-c1c2c3cc(cc4c3n1CCC4)-c1csc(n1)C[C@H](NC(=O)[C@H]1CC[C@H](c3nnnn3C)CC1)C(=O)N1CCC[C@H](N1)C(=O)OCC(C)(C)C2 (atropisomer, axis not shown; (M)) [Example 70, trans-N-[(7S,13S)-(20M)-20-[2-[(1S)-1-methoxyethyl]-5-(4-methylpiperazin-1-yl)-3-pyridyl]-17,17-dimethyl-8,14-dioxo-15-oxa-4-thia-9,21,30,31-tetrazahexacyclo[23.3.1.1^2,5.1^9,13.0^19,27.0^21,26]hentriaconta-1 (29),2,5 (31),19,25,27-hexaen-7-yl]-4-(1-methyltetrazol-5-yl)cyclohexanecarboxamide]	98.7	24.7	17.9	1.8	27.9	5.5
CO[C@@H](C)c1ncc(N2CCN(C)CC2)cc1-c1c2c3cc(cc4c3n1CC(F)(F)C4)-c1csc(n1)C[C@H](NC(=O)[C@H]1C[C@@H]1c1ccccc1)C(=O)N1CCC[C@H](N1)C(=O)OCC(C)(C)C2 (atropisomer, axis not shown; (M)) [Example 78]	30.6	9.8	2.3	2	10.1	1.1
CO[C@@H](C)c1ncc(N2CCN(C)CC2)cc1-c1c2c3cc(cc4c3n1CCC4)-c1csc(n1)C[C@H](NC(=O)[C@H]1C[C@@H]1c1ncccn1)C(=O)N1CCC[C@H](N1)C(=O)OCC(C)(C)C2 [Example 80, (1S,2S)-N-[(7S,13S)-(20M)-20-[2-[(1S)-1-methoxyethyl]-5-(4-methylpiperazin-1-yl)-3-pyridyl]-17,17-dimethyl-8,14-dioxo-15-oxa-4-thia-9,21,30,31-tetrazahexacyclo[23.3.1.1^2,5.1^9,13.0^19,27.0^21,26]hentriaconta-1 (28),2,5 (31), 19,25 (29),26-hexaen-7-yl]-2-pyrimidin-2-yl-cyclopropanecarboxamide]				5.1	47.4	4.2

Further compounds by falling IC50 [4], results first:

IC50 [1] [nM]	IC50 [2] [nM]	IC50 [3] [nM]	IC50 [4] [nM]	IC50 [5] [nM]	IC50 [6] [nM]	SMILES
120	89.4	18	8	59.4	5.5	CO[C@@H](C)c1ncc(N2CCOCC2)cc1-c1c2c3cc(cc4c3n1CC(C)(C)O4)-c1csc(n1)C[C@H](NC(=O)[C@H]1C[C@@H]1C)C(=O)N1CCC[C@H](N1)C(=O)OCC(C)(C)C2 (atropisomer, axis not shown; (M)) [Example 38, (1S,2S)-N-[(7S,13S)-(20M)-20-[2-[(1S)-1-methoxyethyl]-5-morpholino-3-pyridyl]-17,17,23,23-tetramethyl-8,14-dioxo-15,24-dioxa-4-thia-9,21,30,31-tetrazahexacyclo[23.3.1.1^2,5.1^9,13.0^19,27.0^21,26]hentriaconta-1 (28),2,5 (31),19,25 (29),26-hexaen-7-yl]-2-methyl-cyclopropanecarboxamide]
			2.4	31.8	3.2	CO[C@@H](C)c1ncc(N2CCN(CC(F)(F)F)CC2)cc1-c1c2c3cc(cc4c3n1CC(F)(F)C4)-c1csc(n1)C[C@H](NC(=O)[C@H]1C[C@@H]1C)C(=O)N1CCC[C@H](N1)C(=O)OCC(C)(C)C2 (atropisomer, axis not shown; (M)) [Example 67, (1S,2S)-N-[(7S,13S)-23,23-difluoro-(20M)-20-[2-[(1S)-1-methoxyethyl]-5-[4-(2,2,2-trifluoroethyl)piperazin-1-yl]-3-pyridyl]-17,17-dimethyl-8,14-dioxo-15-oxa-4-thia-9,21,30,31-tetrazahexacyclo[23.3.1.1^2,5.1^9,13.0^19,27.0^21,26]hentriaconta-1 (28),2,5 (31),19,25 (29),26-hexaen-7-yl]-2-methyl-cyclopropanecarboxamide]
21.8	3.1	< 0.6	2.3	19.8	1.6	CO[C@@H](C)c1ncc(N2CCN(C)CC2)cc1-c1c2c3cc(cc4c3n1CC(F)(F)C4)-c1csc(n1)C[C@H](NC(=O)[C@H]1C[C@@H]1C(F)F)C(=O)N1CCC[C@H](N1)C(=O)OCC(C)(C)C2 (atropisomer, axis not shown; (M)) [Example 31]
11.9	3.6	0.9	0.7	3.8	0.3	CO[C@@H](C)c1ncc(N2CCOCC2)cc1-c1c2c3cc(cc4c3n1CCO4)-c1csc(n1)C[C@H](NC(=O)[C@H]1C[C@@H]1c1ccccc1)C(=O)N1CCC[C@H](N1)C(=O)OCC(C)(C)C2 (atropisomer, axis not shown; (M)) [Example 43, (1S,2S)-N-[(7S,13S)-(20M)-20-[2-[(1S)-1-methoxyethyl]-5-morpholino-3-pyridyl]-17,17-dimethyl-8,14-dioxo-15,24-dioxa-4-thia-9,21,30,31-tetrazahexacyclo[23.3.1.1^2,5.1^9,13.0^19,27.0^21,26]hentriaconta-1 (29),2,5 (31), 19,25,27-hexaen-7-yl]-2-phenyl-cyclopropanecarboxamide]
